# Test results from ChEMBL document CHEMBL1201862, “PubChem BioAssay data set” (2004).
# The source made the active and inactive calls.
# How the values were obtained:
# [1] = target: T1, Heat shock factor protein 1 (Mus musculus, UniProt P38532); assay: decrease of HSF1-responsive luciferase luminescence – cell-based, NIH3T3, dose retest, confirmation (AID 2382); format: functional;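 note: NIH3T3 fibroblasts with HSF1-driven luciferase reporter stressed by proteasome inhibitor MG132; luminescence from HSF1-driven luciferase expression after 8 hours of MG132 stress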
# T1 sequence (P38532 whole entry): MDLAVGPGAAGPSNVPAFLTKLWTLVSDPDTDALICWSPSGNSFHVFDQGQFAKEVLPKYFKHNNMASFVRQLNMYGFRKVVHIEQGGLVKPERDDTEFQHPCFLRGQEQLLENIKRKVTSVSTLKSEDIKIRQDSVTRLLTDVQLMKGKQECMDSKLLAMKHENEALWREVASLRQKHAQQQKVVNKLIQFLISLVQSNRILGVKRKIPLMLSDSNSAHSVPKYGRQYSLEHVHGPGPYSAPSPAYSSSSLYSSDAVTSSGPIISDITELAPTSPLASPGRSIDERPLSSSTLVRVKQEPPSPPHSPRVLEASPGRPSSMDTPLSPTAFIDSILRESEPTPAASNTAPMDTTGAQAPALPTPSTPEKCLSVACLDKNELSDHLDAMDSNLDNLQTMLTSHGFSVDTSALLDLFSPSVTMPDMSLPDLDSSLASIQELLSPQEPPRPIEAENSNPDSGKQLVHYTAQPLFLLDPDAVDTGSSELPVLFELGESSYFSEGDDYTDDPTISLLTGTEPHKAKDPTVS
# [2] = viability of PTEN-deleted HCT116 cells – cell-based, HCT116 PTEN knockout, dose response (AID 1047); format: functional;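 note: HCT116 colon tumor cells with PTEN knocked out; cells exposed to compound for 60 hours before readout; potency for loss of cell viability measured by luminescence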
# HEK293 [3] = assay: inhibition of NOD1-driven NF-kB reporter – cell-based, luminescence, uHTS, primary screen (AID 1578); format: functional; conditions: Homo sapiens
# [4] = target: Sphingosine 1-phosphate receptor 4 (Homo sapiens, UniProt O95977); assay: Fluorescence dose response cell-based high throughput screening assay for antagonists of the Sphingosine 1-Phosphate Receptor 4 (S1P4). [Related pubchem assays: 1524 (Confirmation in triplicates.), 1510 (Primary screen.)]; format: functional
# Chain of Sphingosine 1-phosphate receptor 4 (O95977 whole entry): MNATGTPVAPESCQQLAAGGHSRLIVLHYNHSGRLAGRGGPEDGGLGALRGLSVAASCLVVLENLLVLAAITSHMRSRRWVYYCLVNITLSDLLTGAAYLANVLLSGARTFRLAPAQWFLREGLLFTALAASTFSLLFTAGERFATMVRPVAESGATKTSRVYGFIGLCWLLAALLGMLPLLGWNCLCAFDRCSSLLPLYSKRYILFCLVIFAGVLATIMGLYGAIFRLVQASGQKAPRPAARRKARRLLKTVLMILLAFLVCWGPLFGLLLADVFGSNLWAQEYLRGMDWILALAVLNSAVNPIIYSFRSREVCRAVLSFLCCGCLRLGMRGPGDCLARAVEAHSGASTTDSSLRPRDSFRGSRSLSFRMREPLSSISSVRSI
# HEK293 [5] = assay: cells; format: functional, cell-based; conditions: Homo sapiens
# INS1 = assay: INS-1E survival protection against cytokine death – cell-based, luminescence, retest, dose response (AID 449756); format: functional; conditions: Rattus norvegicus;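 note: cell death triggered by IL-1 beta plus TNF-alpha plus IFN-gamma mixture; protective hits raise ATP signal compared with cytokine alone wells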
# [6] = loss of viability in HepG2 cells – cell-based, CellTiter-Glo, cherry-picked, cytotoxicity control for Shn3 inhibitor project, dose response (AID 624134); format: functional
# HeLa = assay: Cytotoxicity counterscreen assay for transcriptional activators of heat shock protein 70 (Hsp70). [Related pubchem assays: 1203, 1252 ]; format: functional; conditions: Homo sapiens;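 note: cells exposed to compound for 16 hours before readout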
# [7] = target: Beta-2 adrenergic receptor (Homo sapiens, UniProt P07550); assay: ADRB2 activation measured by internalization – cell-based, FAP fluorogen, flow cytometry, cherry pick 1, dose response (AID 588763); format: functional
# Chain of Beta-2 adrenergic receptor (P07550 whole entry): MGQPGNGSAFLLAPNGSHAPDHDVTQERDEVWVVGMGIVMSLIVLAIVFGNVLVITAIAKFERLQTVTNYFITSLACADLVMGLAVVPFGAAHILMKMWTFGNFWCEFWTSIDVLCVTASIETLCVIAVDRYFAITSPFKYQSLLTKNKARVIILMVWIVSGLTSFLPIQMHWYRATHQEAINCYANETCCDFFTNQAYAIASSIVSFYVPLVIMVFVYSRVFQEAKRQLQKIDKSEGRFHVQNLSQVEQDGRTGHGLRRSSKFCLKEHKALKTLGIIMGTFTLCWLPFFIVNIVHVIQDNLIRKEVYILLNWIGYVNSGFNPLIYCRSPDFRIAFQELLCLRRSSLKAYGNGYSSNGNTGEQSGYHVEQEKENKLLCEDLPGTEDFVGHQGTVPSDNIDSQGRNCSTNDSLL
# HEK293 [8] = assay: cells; format: functional, cell-based; conditions: Homo sapiens; remark: listed apart in the source
# HEK293 [9] = assay: NOD2 signaling inhibitors in MDP-stimulated cells, cell-based, uHTS, luminescence (AID 2001); format: functional; conditions: Homo sapiens
# [10] = non-specific 3'UTR reporter inhibition in Clone20-Shn3RL – cell-based, Renilla luciferase, cherry-picked, counter-screen for Shn3 inhibitor project, dose response (AID 624133); format: functional
# [11] = NIH3T3 cell viability loss – ATP luminescence, mouse fibroblasts, counter-screen, dose response (AID 2010); format: functional, cell-based;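 note: cells exposed to compound for about 90 hours before reading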
# [12] = Trypanosoma cruzi growth suppression in host cells – NIH3T3 host cells, beta-gal luminescence, confirmation (AID 2044); format: functional, cell-based;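 note: intracellular parasites grown in NIH/3T3 mouse fibroblasts as host cells; luminescent beta-galactosidase reporter signal from transgenic T. cruzi replicating inside host cells; inhibitors lower the luminescence signal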
# [13] = viability of HCT116 lacking mutant beta-catenin – cell-based, human colon tumor, dose response (AID 1045); format: functional;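 note: HCT116 colon tumor cells with beta catenin knocked out; cells exposed to compound for 60 hours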
# [14] = reduction of Shn3 3'UTR-driven luciferase in osteoblasts – cell-based, Clone20 osteoblasts, firefly luciferase, cherry-picked, dose response (AID 624132); format: functional;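 note: firefly luciferase luminescence from reporter carrying the Shn3 3'UTR in osteoblasts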
# [15] = target: Sphingosine 1-phosphate receptor 1 (Homo sapiens, UniProt P21453); format: functional;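 note: Tango beta-arrestin reporter U2OS cells stimulated with S1P near its EC80; inhibitor potency meaning antagonism of receptor activation by the natural agonist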
# Chain of Sphingosine 1-phosphate receptor 1 (P21453 whole entry): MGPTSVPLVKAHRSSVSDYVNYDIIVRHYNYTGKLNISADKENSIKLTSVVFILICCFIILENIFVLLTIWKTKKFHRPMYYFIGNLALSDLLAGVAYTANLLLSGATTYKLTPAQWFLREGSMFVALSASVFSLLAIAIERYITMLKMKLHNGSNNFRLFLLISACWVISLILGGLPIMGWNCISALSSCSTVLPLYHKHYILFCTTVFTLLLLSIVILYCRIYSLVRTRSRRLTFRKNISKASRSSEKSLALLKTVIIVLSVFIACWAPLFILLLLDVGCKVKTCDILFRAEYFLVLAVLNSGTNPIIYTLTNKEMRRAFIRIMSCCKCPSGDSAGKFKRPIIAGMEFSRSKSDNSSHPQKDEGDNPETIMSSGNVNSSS
# [16] = target: Induced myeloid leukemia cell differentiation protein Mcl-1 (Homo sapiens, UniProt Q07820); format: functional
# Chain of Induced myeloid leukemia cell differentiation protein Mcl-1 (Q07820 whole entry): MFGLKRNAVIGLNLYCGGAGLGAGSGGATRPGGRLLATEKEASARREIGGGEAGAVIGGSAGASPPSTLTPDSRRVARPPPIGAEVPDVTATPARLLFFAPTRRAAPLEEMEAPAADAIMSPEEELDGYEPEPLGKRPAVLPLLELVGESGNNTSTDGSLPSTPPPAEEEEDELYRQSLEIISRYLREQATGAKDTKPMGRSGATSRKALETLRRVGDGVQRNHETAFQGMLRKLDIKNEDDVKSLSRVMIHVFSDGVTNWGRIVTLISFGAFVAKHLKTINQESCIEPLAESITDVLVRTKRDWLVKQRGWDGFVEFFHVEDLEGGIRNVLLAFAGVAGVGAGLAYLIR
# SUMO-activating enzyme [17] = target: T2, SUMO-activating enzyme (Homo sapiens, UniProt Q9UBT2); assay: blockers of SAE1/SAE2–UBC9 SUMO transfer – biochemical, HTRF, uHTS, primary screen (AID 2006); format: protein-complex assay
# T2 sequence (Q9UBE0 whole entry): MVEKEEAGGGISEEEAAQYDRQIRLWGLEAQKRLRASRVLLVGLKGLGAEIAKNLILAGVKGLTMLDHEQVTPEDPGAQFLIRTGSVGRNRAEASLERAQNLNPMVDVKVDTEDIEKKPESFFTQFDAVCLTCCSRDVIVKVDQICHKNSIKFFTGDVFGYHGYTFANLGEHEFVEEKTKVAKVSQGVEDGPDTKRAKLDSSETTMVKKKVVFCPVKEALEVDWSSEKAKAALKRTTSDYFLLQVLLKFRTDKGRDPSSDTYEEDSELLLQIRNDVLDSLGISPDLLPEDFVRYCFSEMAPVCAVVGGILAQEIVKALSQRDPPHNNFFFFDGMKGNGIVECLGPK
# T2 sequence (Q9UBT2 whole entry): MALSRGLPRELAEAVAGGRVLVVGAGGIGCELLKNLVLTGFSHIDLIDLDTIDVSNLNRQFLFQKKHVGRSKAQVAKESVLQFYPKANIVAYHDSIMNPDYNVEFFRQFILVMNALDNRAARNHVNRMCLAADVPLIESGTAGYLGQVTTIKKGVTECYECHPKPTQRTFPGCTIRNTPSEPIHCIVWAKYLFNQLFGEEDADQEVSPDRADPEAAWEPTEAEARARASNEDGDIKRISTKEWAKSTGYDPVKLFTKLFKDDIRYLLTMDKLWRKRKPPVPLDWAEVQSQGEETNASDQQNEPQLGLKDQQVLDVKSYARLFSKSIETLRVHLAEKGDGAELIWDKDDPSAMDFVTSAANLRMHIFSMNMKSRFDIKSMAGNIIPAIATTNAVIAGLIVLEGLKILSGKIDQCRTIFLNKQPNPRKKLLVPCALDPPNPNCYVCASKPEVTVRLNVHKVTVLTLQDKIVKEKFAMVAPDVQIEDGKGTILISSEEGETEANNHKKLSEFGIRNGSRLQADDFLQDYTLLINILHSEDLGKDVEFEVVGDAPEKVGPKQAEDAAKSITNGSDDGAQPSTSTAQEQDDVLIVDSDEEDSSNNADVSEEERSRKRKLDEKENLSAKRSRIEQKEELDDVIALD
# SUMO-activating enzyme [18] = target: T2, SUMO-activating enzyme; assay: blockers of UBC9-mediated SUMO conjugation – biochemical, AlphaScreen, SUMOylation inhibitor project, confirmation (AID 2018); format: functional
# [19] = CCR5-tropic HIV-1 fusion blockers – cell-based, CCR5-tropic Env, dose response (AID 2279); format: functional
# [20] = Luminescence Cell-Based Dose Confirmation HTS to Identify Inhibitors of Platelet Dense Granule Release. [Related pubchem assays: 1663 (Primary HTS), 1678 (Summary of Project)]; format: functional
# [21] = target: Luciferin 4-monooxygenase (Photinus pyralis, UniProt P08659); assay: inhibition of purified Photinus pyralis luciferase – biochemical, luminescence, dose response (AID 1891)
# Chain of Luciferin 4-monooxygenase (P08659 whole entry): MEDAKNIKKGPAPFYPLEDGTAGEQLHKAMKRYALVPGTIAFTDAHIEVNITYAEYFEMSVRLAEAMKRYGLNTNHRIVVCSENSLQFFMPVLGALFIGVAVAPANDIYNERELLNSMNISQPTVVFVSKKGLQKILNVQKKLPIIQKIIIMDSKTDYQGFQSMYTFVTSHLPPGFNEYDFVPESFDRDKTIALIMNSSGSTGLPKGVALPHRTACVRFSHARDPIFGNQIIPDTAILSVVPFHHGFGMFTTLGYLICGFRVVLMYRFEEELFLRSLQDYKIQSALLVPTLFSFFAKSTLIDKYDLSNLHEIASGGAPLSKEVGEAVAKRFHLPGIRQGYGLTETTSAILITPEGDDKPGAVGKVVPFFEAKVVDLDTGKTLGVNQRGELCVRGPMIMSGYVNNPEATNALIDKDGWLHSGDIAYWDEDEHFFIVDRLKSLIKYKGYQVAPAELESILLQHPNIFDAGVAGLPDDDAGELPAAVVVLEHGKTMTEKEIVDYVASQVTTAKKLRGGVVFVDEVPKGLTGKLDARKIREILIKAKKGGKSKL
# A-375 = assay: MITF: Counter assay: A375 proliferation Measured in Cell-Based System Using Plate Reader - 2084-03_Inhibitor_Dose_DryPowder_Activity. [Related pubchem assays (depositor defined):AID488944]; format: functional; conditions: Homo sapiens
# [22] = Luminescence-based counterscreen assay for KLF5 inhibitors: dose response cell-based high throughput screening assay to identify cytotoxic compounds using the IEC-6 intestinal epithelial cell line. [Related pubchem assays: 1700 (Primary screen.), 1834 (Confirmation screen.), 1858 (Summary AID.), 1905 (Counterscreen.)]; format: functional
# [23] = HEK-293T viability loss after treatment – luminescence, T-cell screen hits, cytotoxicity control for TCR NF-kB inhibitor project, dose response (AID 489026); format: functional, cell-based;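 note: cells exposed to compound about 14 hours before the viability readout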
# [24] = general cell-killing toxicity readout – plate reader, dry powder samples, cytotoxicity control for PAX8 inhibitor project, dose response (AID 743021); format: functional, cell-based
# Paired box protein Pax-8 = Paired box protein Pax-8 (Homo sapiens, UniProt Q06710); assay: PAX8 transcriptional activity inhibition in RMG-I – RMG-I cells, luciferase, cherry-pick, dose response (AID 687027); format: functional, cell-based;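 note: luciferase reporter driven by Pax8 target thyroperoxidase promoter measured by SteadyGlo luminescence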
# Chain of Paired box protein Pax-8 (Q06710 whole entry): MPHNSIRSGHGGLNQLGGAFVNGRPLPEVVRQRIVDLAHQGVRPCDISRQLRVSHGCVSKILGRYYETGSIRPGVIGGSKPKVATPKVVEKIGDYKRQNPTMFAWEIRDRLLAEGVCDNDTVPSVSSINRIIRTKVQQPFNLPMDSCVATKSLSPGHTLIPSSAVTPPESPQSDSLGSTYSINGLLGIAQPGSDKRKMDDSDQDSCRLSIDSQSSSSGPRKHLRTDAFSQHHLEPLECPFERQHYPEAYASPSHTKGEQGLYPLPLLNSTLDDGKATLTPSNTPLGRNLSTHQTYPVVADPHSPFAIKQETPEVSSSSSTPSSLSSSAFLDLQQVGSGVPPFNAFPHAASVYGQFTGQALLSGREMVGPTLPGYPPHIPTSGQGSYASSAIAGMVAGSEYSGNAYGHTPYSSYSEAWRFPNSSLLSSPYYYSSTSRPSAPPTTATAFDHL
# [25] = target: T3, Microphthalmia-associated transcription factor (Homo sapiens, UniProt O75030); assay: reducers of TRPM1 reporter luminescence, concentration series – cell-based, SK-MEL-5, cherry-picked, set 3, MITF inhibitor project, dose response (AID 493073); format: functional;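 note: SK-MEL-5 melanoma cells with luciferase driven by the MITF target TRPM1 promoter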
# T3 sequence (O75030 whole entry): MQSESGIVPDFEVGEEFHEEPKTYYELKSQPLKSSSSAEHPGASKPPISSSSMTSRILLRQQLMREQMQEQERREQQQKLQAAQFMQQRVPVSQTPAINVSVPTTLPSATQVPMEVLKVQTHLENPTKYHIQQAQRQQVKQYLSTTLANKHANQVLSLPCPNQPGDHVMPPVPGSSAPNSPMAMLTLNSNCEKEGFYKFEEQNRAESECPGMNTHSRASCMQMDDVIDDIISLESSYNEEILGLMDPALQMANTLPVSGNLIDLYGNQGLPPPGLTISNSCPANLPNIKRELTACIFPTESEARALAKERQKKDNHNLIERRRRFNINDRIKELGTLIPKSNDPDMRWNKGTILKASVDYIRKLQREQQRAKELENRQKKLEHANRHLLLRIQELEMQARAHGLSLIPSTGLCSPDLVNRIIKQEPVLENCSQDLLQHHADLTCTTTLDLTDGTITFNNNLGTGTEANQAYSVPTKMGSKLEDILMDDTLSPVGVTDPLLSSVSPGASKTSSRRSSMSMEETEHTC
compound,measurement,setting,value
Cc1ccc(-c2nc(NC(=O)c3nn(C)cc3[N+](=O)[O-])sc2C)cc1C,EC50,[1],4.28 µM (inconclusive)
same,EC50,[2],0.224 µM (active)
same,EC50,HEK293 [3],9.93 µM (active)
same,IC50,[4],1 µM (active)
same,IC50,HEK293 [5],17.7 µM (active)
same,AC50,INS1,3.62 µM (active)
same,AC50,[6],18.2 µM (active)
same,CC50,HeLa,2.08 µM (active)
same,EC50,[7],64.1 µM (inactive)
same,IC50,HEK293 [8],6.72 µM (active)
same,IC50,HEK293 [9],3.82 µM (active)
same,AC50,[10],6.06 µM (active)
same,EC50,[11],4.71 µM (active)
same,EC50,[12],2.7 µM (active)
same,EC50,[13],0.207 µM (active)
same,AC50,[14],2.25 µM (active)
same,IC50,[15],18.1 µM (not active)
CN(C)S(=O)(=O)c1cccc(-c2nn(-c3ccccc3)cc2/C=C2\SC(=S)NC2=O)c1,IC50,[16],1.44 µM (active)
same,IC50,SUMO-activating enzyme [17],10.6 µM (active)
same,IC50,SUMO-activating enzyme [18],7.59 µM (active)
same,IC50,[19],7.08 µM (active)
COc1cccc(/C=N/Nc2ccc(C(=O)O)cc2)c1O,EC50,[20],0.17 µM (active)
same,EC50,[21],0.693 µM (active)
same,AC50,A-375,29.9 µM (active)
same,IC50,[22],> 39.8 µM (not active)
same,IC50,[23],> 80 µM (inactive)
same,AC50,[24],21.6 µM (active)
same,AC50,Paired box protein Pax-8,0.635 µM (active)
same,AC50,[25],0.333 µM (active)
